Common to all, as to format: biochemical
The nature of assay [1]: ABTS radical cation scavenging (decolorization) assay. As to conditions: mean ± SEM, n = 3; for ABTS TEAC (Trolox equivalent antioxidant capacity): 1 h incubation, relative to Trolox; for IC50: 1 h, read-out: ABTS IC50 (compound concentration required for 50% reduction of the ABTS radical-cation) (converted). Here is the method:
The ABTS assay is based on the direct quenching of the ABTS cation radical (ABTS^•+) by antioxidants. The assay is carried out by spectrophotometric determination of a decrease in absorbance of a stable dark green ABTS^•+ solution after its interaction with an antioxidant compound [56]. The measurements were performed as previously described in detail. The results are expressed as TEAC values (Trolox equivalent antioxidant capacity) and IC50 values (compound concentration required for 50% reduction of the ABTS radical).
Radical scavenging activity of the compounds was assessed using the ABTS radical cation (ABTS^•+) decolorization assay with some modifications. ABTS (2,2′-azinobis-(3-ethylbenzothiazoline-6-sulfonic acid)) was purchased from Tokyo Chemical Industry Co., Ltd. (Tokyo, Japan), and potassium persulfate (dipotassium peroxodisulfate), Trolox (6-hydroxy-2,5,7,8-tetramethylchroman-2-carboxylic acid), and HPLC-grade ethanol and DMSO were obtained from Sigma-Aldrich (Saint Louis, MO, USA). Aqueous solutions were prepared using deionized water. All test compounds were dissolved in DMSO.
The solution of cation radical ABTS^•+ was produced by incubation of an aqueous solution of 7 mM ABTS and 2.45 mM potassium persulfate solution in equal quantities for 12–16 h at room temperature in the dark. Radical scavenging capacity of the compounds was analyzed by mixing 10 μL of compound with 240 μL of ABTS^•+ working solution in ethanol (100 μM final concentration). Data were given for 1 h of incubation of compounds with ABTS^•+. The reduction in absorbance was measured spectrophotometrically at 734 nm using an xMark microplate UV/VIS microplate spectrophotometer (Bio-Rad, Hercules, CA, USA).
Ethanol blanks were run in each assay. Values were obtained from three replicates of each sample and three independent experiments.
Standard antioxidant Trolox was used as a reference compound. Antioxidant capacity as Trolox equivalent (TEAC) values was determined as the ratio between the slopes obtained from the linear correlation of the ABTS radical absorbance with the concentrations of tested compounds and Trolox. Quercetin was used as a positive control. For the test compounds that reduced ABTS^•+ absorbance by more than 60% at 100 µM, we also determined the IC50 values (the compound concentration required for a 50% reduction of the ABTS radical). The compounds were tested in the concentration range of 0.5–400 µM.

The nature of assay [2]: ORAC-FL (oxygen radical absorbance capacity) assay. The settings on record: mean ± SEM, n = 3; 2 h; 10 μM compound and Trolox. The text has this:
In the oxygen radical absorbance capacity (ORAC-FL) assay, 2,2′-azobis-(2-methylpropionamidine) dihydrochloride (AAPH) is used as a free peroxyl radical generator, and fluorescein (FL) is used as a fluorescent probe. The method is based on measuring the decrease in the intensity of fluorescence with time, which characterizes the degree of decay of the fluorescent probe under the influence of peroxyl radicals. In the presence of antioxidants, the degree of decay of the fluorescent probe decreases and, accordingly, the fluorescence intensity increases. The results are expressed as TE (Trolox equivalents).
The ORAC assay utilizes a biologically relevant radical source, 2,2′-azobis(2-amidinopropane) dihydrochloride (AAPH)-derived peroxyl radicals. Thus, it is a more physiologically relevant assay than ABTS and FRAP.
The oxygen radical absorbance capacity (ORAC) was determined by the ability of compounds to protect fluorescein (FL) from peroxyl radicals that are generated by AAPH according to the known method with minor variations. The reaction was carried out at 37 °C in black 96-well plates (SPL life sciences), and the final volume of the reaction mixture was 200 µL per well. The fluorescence was recorded by Tecan M1000 PRO microplate reader (Switzerland) at 485 nm excitation and 520 nm emission.
The 0.7 mM fluorescein sodium salt stock solution in PBS pH 7.4 (137 mM sodium chloride, 2.7 mM potassium chloride, and 10 mM phosphate buffer) was prepared and stored at 4–5 °C no longer than one month. An aliquot of the fluorescein stock solution was further diluted with PBS immediately before each assay to yield a 70 nM working solution. The 133 mM AAPH solution in PBS was prepared immediately before use. The test compounds and Trolox standard were dissolved in DMSO to 400 μM. The final concentration was 10 μM for all of the samples.
The blank was composed of 15 μL PBS pH 7.4, 5 μL DMSO (final concentration: 2.5% (v/v)), 120 μL FL, and 60 μL AAPH, and it was included in each assay. PBS pH 7.4 (15 μL), antioxidant (the test compound or Trolox, 5 μL), and FL (120 μL, final concentration: 42 nM) solutions were placed in a black 96-well microplate and were pre-incubated for 15 min at 37 °C. AAPH solution (60 μL, final concentration 40 mM) was then added rapidly using a multichannel pipette. The fluorescence was recorded every minute for 2 h. A Trolox standard curve was also obtained in each assay. All reactions were carried out in quadruplicate, and two to four independent assays were performed for each sample.
Antioxidant curves (fluorescence vs. time) were first normalized to the curve of the blank (without antioxidant) corresponding to the same assay, and the net AUC corresponding to a sample was calculated by subtracting the AUC corresponding to the blank. The ORAC value was obtained by dividing the latter curve by the Trolox curve obtained in the same assay at 10 μM concentrations of compounds and Trolox. Final ORAC values, Trolox equivalents (TE), were expressed as μmol test compounds per μmol Trolox, where the value of TE for Trolox was taken as 1. Data were expressed as means ± SEM.

In a further assay the target is T1, human erythrocyte AChE (Homo sapiens, UniProt P22303).
T1 construct: Human erythrocyte acetylcholinesterase (AChE, EC 3.1.1.7); purchased Sigma-Aldrich (Saint Louis, MO, USA); host or cells: human erythrocytes
Briefly: Inhibition of AChE (Ellman's colorimetric assay). As to conditions: read-out: AChE % inhibition at 20 μM. The source says: (§1) Given the available literature data on the ability of pyrazole derivatives to inhibit acetylcholinesterase (AChE) and human carboxylesterase-1 (CES), we performed an investigation of the esterase profile for new compounds 1a–j and 4a–j, including an evaluation of their inhibitory effect on the standard enzymes set: human erythrocyte AChE, equine serum butyrylcholinesterase (BChE), and porcine liver CES (Table 2). The applicability of this set of enzymes was shown by us earlier.
(§2) Human erythrocyte acetylcholinesterase (AChE, EC 3.1.1.7), equine serum butyrylcholinesterase (BChE, EC 3.1.1.8), porcine liver carboxylesterase (CES, EC 3.1.1.1), acetylthiocholine iodide (ATCh), butyrylthiocholine iodide (BTCh), 4-nitrophenol acetate (4-NPA), and 5,5′-dithio-bis-(2-nitrobenzoic acid) (DTNB) were purchased from Sigma-Aldrich (Saint Louis, MO, USA).
(§3) All the kinetic experiments were performed under standard conditions, according to the protocol of IPAC RAS for a reversible inhibitors study.
(§4) Ellman’s colorimetric assay was used to measure AChE and BChE activity in 0.1 M K/Na phosphate buffer at pH 7.5, 25 °C [86]. Final concentrations of reactants were 0.33 mM DTNB, 0.02 unit/mL of AChE or BChE, and 1 mM of substrate (ATCh or BTCh, respectively). Reagent blanks consisted of reaction mixtures without enzyme to assess non-enzymatic hydrolysis of substrates. Porcine liver CES activity was assessed colorimetrically in 0.1 M K/Na phosphate buffer with pH 8.0 at 25 °C, by measuring the absorbance of 4-nitrophenol at 405 nm. Final enzyme and substrate (4-NPA) concentrations were 0.02 unit/mL and 1 mM, respectively. Reagent blanks included all constituents except enzyme.
(§5) Test compounds were dissolved in DMSO. Reaction mixtures contained a final DMSO concentration of 2% (v/v). Enzyme inhibition was first assessed at a single concentration of 20 µM for each compound after a 10 min incubation at 25 °C in three separate experiments. Compounds inhibiting the enzyme by more than 30% were then selected for determination of the IC50 (inhibitor concentration resulting in 50% inhibition of control enzyme activity). […] Substrate was then added, and residual enzyme activity relative to an inhibitor-free control was measured using a FLUOStar Optima microplate reader (LabTech, Ortenberg, Germany).

A further assay relates to porcine liver CES. Briefly: Inhibition of CES (4-nitrophenol acetate hydrolysis). The settings on record: 20 μM, ± SEM, n = 3, 10 min incubation 25 °C.
From the text: as §1, §2, §3, §4, §5

Assay [3] in a line: FRAP (ferric reducing antioxidant power) assay. As to conditions: mean ± SEM, n = 3; 1 h, 37 °C, pH 3.6. Here is the method: The FRAP (ferric reducing antioxidant power) assay measures the ability of antioxidants to reduce the ferric 2,4,6-tripyridyl-s-triazine complex [Fe(TPTZ)2]^3+ to the intensely blue ferrous complex [Fe(TPTZ)2]^2+ in an acidic medium. The measurements were performed as previously described in detail. The results are expressed as TE (Trolox equivalents).
The FRAP (ferric reducing antioxidant power) assay measures the ability of antioxidants to reduce the ferric 2,4,6-tripyridyl-s-triazine complex [Fe (TPTZ)2]^3+ to the intensely blue ferrous complex [Fe (TPTZ)2]^2+ (λ = 593 nm) in acidic medium. 2,4,6-Tris(pyridin-2-yl)-1,3,5-triazine (TPTZ), FeCl3·6H2O, Trolox, quercetin and DMSO were obtained from Sigma-Aldrich Chemical Co. (St. Louis, MO, USA). The FRAP reagent contained 2.5 mL of 10 mM TPTZ solution in 40 mM HCl, 2.5 mL of 20 mM FeCl3·6H2O water solution, and 25 mL of 0.3 M acetate buffer (pH 3.6). Aliquots of 10 µL of the test compound solution in DMSO (0.5 mM) were mixed with 240 µL of FRAP reagent, and the absorbance of the mixture was measured spectrophotometrically (FLUOStar OPTIMA microplate spectrophotometer (BMG Labtech, Ortenberg, Germany)) at 600 nm after 1 h incubation at 37 °C against a blank. Trolox was used as a reference compound. Quercetin was used as a positive control. A calibration curve with linear formula y = 0.03x (R^2 = 0.998, p < 0.0001) was prepared for Trolox solutions in DMSO at a range of 2.5–100 µM, and the results are expressed as Trolox equivalents (TE), the values calculated as the ratio of the concentrations of Trolox and the test compound, resulting in the same effect.

For assay [4], the target named is T2, equine serum butyrylcholinesterase (BChE) (Equus caballus, UniProt P81908).
T2 construct: equine serum butyrylcholinesterase (BChE, EC 3.1.1.8); purchased Sigma-Aldrich (Saint Louis, MO, USA); host or cells: equine serum
Put plainly: Inhibition of BChE (Ellman's colorimetric assay). The settings on record: ± SEM, n = 3, 10 min incubation 25 °C.
From the text: as §1, §2, §3, §4, §5
A general note: Ellman's reagent forms a yellow product with free thiols.

Structures are written as SMILES. “And” between values parts separate entries of the source, which are not always exact repeats. Equal entries are not always repeated.

What is called inhibition is the percentage by which the read-out fell short of the control.

T2 sequence (P81908 whole entry): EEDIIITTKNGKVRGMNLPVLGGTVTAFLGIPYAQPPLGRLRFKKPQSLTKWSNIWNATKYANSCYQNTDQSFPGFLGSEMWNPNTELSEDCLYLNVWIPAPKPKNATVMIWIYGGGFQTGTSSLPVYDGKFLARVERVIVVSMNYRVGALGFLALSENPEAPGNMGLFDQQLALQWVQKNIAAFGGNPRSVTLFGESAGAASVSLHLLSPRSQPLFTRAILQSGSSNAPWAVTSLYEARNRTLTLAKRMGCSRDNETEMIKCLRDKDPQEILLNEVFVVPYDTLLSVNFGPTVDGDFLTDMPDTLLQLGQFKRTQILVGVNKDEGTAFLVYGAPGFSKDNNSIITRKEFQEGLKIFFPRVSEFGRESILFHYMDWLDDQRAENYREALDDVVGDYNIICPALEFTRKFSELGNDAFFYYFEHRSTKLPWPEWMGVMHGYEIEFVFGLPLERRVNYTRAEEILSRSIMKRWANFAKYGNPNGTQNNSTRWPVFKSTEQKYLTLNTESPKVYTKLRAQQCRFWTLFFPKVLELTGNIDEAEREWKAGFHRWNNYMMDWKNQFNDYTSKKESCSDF
T1 sequence (P22303 32-617 isoform P22303-2 limits assumed): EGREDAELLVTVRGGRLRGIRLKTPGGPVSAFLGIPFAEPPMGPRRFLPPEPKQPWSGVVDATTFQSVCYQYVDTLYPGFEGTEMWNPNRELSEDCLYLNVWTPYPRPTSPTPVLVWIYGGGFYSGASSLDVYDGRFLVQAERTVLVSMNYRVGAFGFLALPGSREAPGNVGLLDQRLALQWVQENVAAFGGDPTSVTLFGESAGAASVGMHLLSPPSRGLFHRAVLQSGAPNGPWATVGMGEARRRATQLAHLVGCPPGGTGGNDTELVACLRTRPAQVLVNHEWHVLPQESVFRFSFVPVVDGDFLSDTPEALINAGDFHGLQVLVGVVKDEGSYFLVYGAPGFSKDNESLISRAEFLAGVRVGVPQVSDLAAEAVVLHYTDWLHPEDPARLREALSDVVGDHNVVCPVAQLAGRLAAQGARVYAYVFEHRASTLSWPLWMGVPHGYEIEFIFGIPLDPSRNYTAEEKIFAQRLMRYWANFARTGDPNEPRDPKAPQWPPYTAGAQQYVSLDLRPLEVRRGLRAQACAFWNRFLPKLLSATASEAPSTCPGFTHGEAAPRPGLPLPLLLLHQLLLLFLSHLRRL

For the molecule `O=C1NN=C(C(F)(F)C(F)(F)C(F)(F)F)/C1=N/O` [1h], the “ABTS TEAC (Trolox equivalent antioxidant capacity)” value (“ABTS TEAC” below) in assay [1] is given as 0.19 ± 0.008 (n.d.) TEAC. Moreover, the “ORAC-FL TE (Trolox equivalent)” value in assay [2] was 2.37 ± 0.09 TE. Moreover, the inhibition at 20 µM at human erythrocyte AChE came to 5.3 ± 1.3%. Also, the “CES % inhibition at 20 μM” value in the assay with porcine liver CES is 6.6 ± 1.4%.

On to `Cl.Nc1c(C(F)(F)C(F)F)n[nH]c1O.O` [4f, 4-Amino-3-(1,1,2,2-tetrafluoroethyl)-1H-pyrazol-5-ol hydrate hydrochloride], for which, in assay [1], the IC50 is 33.2 µM and the “ABTS TEAC” value was 0.50 ± 0.02 TEAC. Besides, the inhibition at 20 µM on human erythrocyte AChE was 17.3 ± 1.5%. Moreover, in assay [3], the “FRAP TE (Trolox equivalent)” value was determined as 0.62 ± 0.01 TE. The “CES % inhibition at 20 μM” value in the assay with porcine liver CES was found to be 17.5 ± 1.4%.

For the molecule `O=C1NN=C(C(F)(F)C(F)F)/C1=N/O` [1f], the “ABTS TEAC” value in assay [1] is 0.15 ± 0.007 (n.d.) TEAC. Further, the inhibition at 20 µM at human erythrocyte AChE amounted to 6.8 ± 1.2%; in assay [4], 4.7 ± 1%. Further, in the assay on porcine liver CES, the “CES % inhibition at 20 μM” value was found to be 3.5 ± 0.9%.

As for `O=C1/C(=N\O)C(C(F)(F)C(F)(F)F)=NN1c1ccccc1` [1b], in assay [1], the “ABTS TEAC” value was 0.03 ± 0.002 (n.d.) TEAC. Besides, the inhibition at 20 µM on human erythrocyte AChE turned out to be 11.9 ± 0.9%; in assay [4], 16.1 ± 1.4%. Moreover, in assay [3], the “FRAP TE (Trolox equivalent)” value turned out to be 0.06 ± 0.01 TE. Moreover, the “CES % inhibition at 20 μM” value in the assay with porcine liver CES is 8.2 ± 1.3%.

Take `O=C1/C(=N\O)C(C(F)(F)C(F)(F)C(F)(F)C(F)(F)F)=NN1c1ccccc1` [1c]: the “ABTS TEAC” value in assay [1] is given as 0.04 ± 0.004 (n.d.) TEAC. Besides, the inhibition at 20 µM at human erythrocyte AChE turned out to be 11.5 ± 1.8%; in assay [4] it was 5.3 ± 1%. In assay [3], the “FRAP TE (Trolox equivalent)” value was 0.06 ± 0.01 TE. The “CES % inhibition at 20 μM” value in the assay on porcine liver CES was found to be 7.8 ± 1.4%.

With `O=C1NN=C(C(F)(F)C(F)(F)C(F)(F)C(F)(F)F)/C1=N/O` [1i], in assay [1], the “ABTS TEAC” value is on record as 0.2 ± 0.01 (n.d.) TEAC. Moreover, the “ORAC-FL TE (Trolox equivalent)” value in assay [2] is recorded as 2.41 ± 0.08 TE.

`O=c1c(O)c(-c2ccc(O)c(O)c2)oc2cc(O)cc(O)c12` [Quercetin, reference compound]: in assay [1], the IC50 was 13.8 µM and the “ABTS TEAC” value turned out to be 1.20 ± 0.11 TEAC. In assay [2], the “ORAC-FL TE (Trolox equivalent)” value worked out at 5.41 ± 0.08 TE. Besides, the “FRAP TE (Trolox equivalent)” value in assay [3] is recorded as 4.99 ± 0.02 TE.

Turning to `CC1=NN(c2ccccc2)C(=O)/C1=N\O` [1d], the “ABTS TEAC” value in assay [1] is listed as 0.16 ± 0.02 (n.d.) TEAC. The “ORAC-FL TE (Trolox equivalent)” value in assay [2] is 1.07 TE and 1.07 ± 0.17 TE. Besides, the results for the inhibition at 20 µM (at human erythrocyte AChE; in assay [4]) were 4.9 ± 1.3% and 6.6 ± 1.3%, respectively.

With `O=C1/C(=N\O)C(C(F)(F)F)=NN1c1ccccc1` [1a], the “ABTS TEAC” value in assay [1] was 0.035 ± 0.002 (n.d.) TEAC.

The values are drawn from publication PMC9699072 (Molecules, 2022).
